The structures appear in SMILES notation. Where a name gives a salt, the structure may show the parent alone.

mGluR5 receptor, sequence (I3LUI7 19-1212): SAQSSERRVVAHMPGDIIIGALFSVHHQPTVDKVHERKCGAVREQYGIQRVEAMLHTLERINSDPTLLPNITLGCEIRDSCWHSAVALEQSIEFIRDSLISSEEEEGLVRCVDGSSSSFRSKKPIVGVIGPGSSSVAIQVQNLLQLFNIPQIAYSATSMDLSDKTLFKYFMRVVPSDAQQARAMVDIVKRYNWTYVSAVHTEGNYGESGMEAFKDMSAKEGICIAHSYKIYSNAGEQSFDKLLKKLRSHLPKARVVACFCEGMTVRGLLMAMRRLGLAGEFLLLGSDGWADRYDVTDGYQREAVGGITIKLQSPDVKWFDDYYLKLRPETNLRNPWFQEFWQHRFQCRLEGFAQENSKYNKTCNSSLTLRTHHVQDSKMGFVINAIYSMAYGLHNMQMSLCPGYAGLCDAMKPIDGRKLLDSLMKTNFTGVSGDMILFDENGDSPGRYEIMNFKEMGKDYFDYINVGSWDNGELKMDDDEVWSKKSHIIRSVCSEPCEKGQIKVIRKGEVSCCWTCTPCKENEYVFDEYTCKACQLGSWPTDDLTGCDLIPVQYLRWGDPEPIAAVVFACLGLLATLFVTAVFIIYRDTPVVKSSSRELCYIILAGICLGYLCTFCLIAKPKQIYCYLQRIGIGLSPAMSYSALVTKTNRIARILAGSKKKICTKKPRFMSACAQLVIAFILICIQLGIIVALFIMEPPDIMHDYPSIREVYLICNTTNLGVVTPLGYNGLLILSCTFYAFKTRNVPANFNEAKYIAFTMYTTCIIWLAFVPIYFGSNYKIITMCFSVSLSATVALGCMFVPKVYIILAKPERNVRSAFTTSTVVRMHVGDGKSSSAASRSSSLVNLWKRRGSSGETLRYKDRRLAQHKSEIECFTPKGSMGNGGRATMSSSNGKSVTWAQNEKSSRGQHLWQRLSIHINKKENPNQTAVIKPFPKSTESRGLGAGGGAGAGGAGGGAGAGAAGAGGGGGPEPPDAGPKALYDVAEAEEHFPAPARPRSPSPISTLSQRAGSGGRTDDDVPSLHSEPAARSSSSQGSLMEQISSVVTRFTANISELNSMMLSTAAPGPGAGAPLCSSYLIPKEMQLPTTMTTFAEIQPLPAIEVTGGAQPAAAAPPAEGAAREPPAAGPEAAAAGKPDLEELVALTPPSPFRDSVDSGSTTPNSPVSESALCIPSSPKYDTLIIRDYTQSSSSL

The first assay concerns the target mGluR5 receptor (Sus scrofa, UniProt I3LUI7). Kind of assay: Affinity for the mGluR5 receptor: inhibition of 3[H]-MPEP binding in pig brain homogenate. As to conditions: 10 μM compound, 5 nM 3[H]-MPEP, read-out: mGluR5 receptor inhibition of ^3[H]-MPEP binding [10 μM] in % at a concentration of the example compounds of 10 μM. The protocol: 1. Method for Determining Affinity for the mGluR5 Receptor
Pig brain homogenate is produced by homogenisation (Polytron Pt 3000, Kinematica AG, 10,000 revolutions per minute for 90 seconds) of pig brain hemispheres without medulla, cerebellum and pons in a buffer of pH 8.0 (30 mM Hepes, Sigma, order number H3375+1 tablet Complete Roche Diagnostics, order number 1836145 made up to 100 ml) in a ratio of 1:20 (brain weight/volume) and differential centrifugation at 900×g and 40,000×g. 450 μg of protein from brain homogenate is incubated in each case in 250 μl incubation batches in 96-well microtitre plates with 5 nM 3[H]-MPEP (Tocris, order number R1212) (MPEP=2-methyl-6-[…]) and the compounds to be investigated (10 μM in the test) in the buffer (as above) at room temperature for 60 minutes.
The batches are then filtered with the assistance of a Brandel Cell Harvester (Brandel, Grade Robotic 9600) on Unifilter plates with glass filter mats (Perkin Elmer, order number 6005177) and then washed 3 times with buffer (as above) using 250 μl per sample. The filter plates are then dried for 60 minutes at 55° C. Then 30 μl of Ultima Gold™ scintillating material (Packard BioScience, order number 6013159) is added per well and after 3 hours the samples are measured using the β counter (Microbeta, Perkin Elmer). Nonspecific binding is determined by the addition of 10 μM MPEP (Tocris, order number 1212).
As for `COc1ccc(CNc2c(-c3ccc(C#Cc4ccccc4)s3)nc3cc(C)cc(C)n23)cc1` [Example 14, [5,7-dimethyl-2-(5-phenylethynyl-thiophen-2-yl)-imidazo[1,2-a]pyridin-3-yl]-(4-methoxy-benzyl)-amine], the inhibition at 10 µM turned out to be 100%.

In the case of `Cc1cc(C)n2c(NCc3ccccc3Cl)c(-c3ccc(C#Cc4ccccc4)s3)nc2c1` [Example 32, (2-chloro-benzyl)-[5,7-dimethyl-2-(5-phenylethynyl-thiophen-2-yl)-imidazo[1,2-a]pyridin-3-yl]-amine], the inhibition at 10 µM was 98%.

For `CCc1ccn2c(NCc3ccccc3OC)c(-c3ccc(C#Cc4ccccc4)s3)nc2c1` [Example 44, [7-ethyl-2-(5-phenylethynyl-thiophen-2-yl)-imidazo[1,2-a]pyridin-3-yl]-(2-methoxy-benzyl)-amine], the inhibition at 10 µM worked out at 75%.

For the molecule `Cc1cc(C)n2c(NC3CCCCC3)c(-c3ccc(C#Cc4ccccc4)nc3C)nc2n1` [Example 293, N-cyclohexyl-5,7-dimethyl-2-(2-methyl-6-(phenylethynyl)pyridin-3-yl)imidazo[1,2-a]pyrimidin-3-amine], the inhibition at 10 µM turned out to be 70%.

Regarding `C(#Cc1csc(-c2nc3cc(-c4ccccc4)ccn3c2NCCc2ccccc2)c1)c1ccccc1` [Example 229, N-phenethyl-7-phenyl-2-(4-(phenylethynyl)thiophen-2-yl)imidazo[1,2-a]pyridin-3-amine], the inhibition at 10 µM came out at 30%.

On to `CC(C)(C)CC(C)(C)Nc1c(-c2cccc(C#Cc3ccccn3)c2)nc2ccccn12` [Example 262, 2-(3-(pyridin-2-ylethynyl)phenyl)-N-(2,4,4-trimethylpentan-2-yl)imidazo[1,2-a]pyridin-3-amine], for which the inhibition at 10 µM is 72%.

For `COc1cccc(Nc2c(-c3ccc(C#Cc4ccccc4)s3)nc3cnccn23)c1` [Example 43, (3-methoxy-phenyl)-[2-(5-phenylethynyl-thiophen-2-yl)-imidazo[1,2-a]pyrazin-3-yl]-amine], the inhibition at 10 µM amounted to 83%.

`CCc1ccn2c(NC3CCCCC3)c(-c3cccc(C#Cc4ccccn4)c3)nc2c1` [Example 300, N-cyclohexyl-7-ethyl-2-(3-(pyridin-2-ylethynyl)phenyl)imidazo[1,2-a]pyridin-3-amine]: the inhibition at 10 µM was determined as 50%.

For `COc1cccc(CCNc2c(-c3cc(C#Cc4ccccc4)cs3)nc3cccc(C)n23)c1` [Example 199, N-(3-methoxyphenethyl)-5-methyl-2-(4-(phenylethynyl)thiophen-2-yl)imidazo[1,2-a]pyridin-3-amine], the inhibition at 10 µM amounted to 57%.

For `Fc1ccc(Nc2c(-c3ccc(C#Cc4ccccn4)o3)nc3ccccn23)cc1` [Example 287, N-(4-fluorophenyl)-2-(5-(pyridin-2-ylethynyl)furan-2-yl)imidazo[1,2-a]pyridin-3-amine], the inhibition at 10 µM stood at 30%.

On to `COc1ccc(CNc2c(-c3ccc(C#Cc4ccccc4)s3)nc3cccc(C)n23)cc1` [Example 10, (4-methoxy-benzyl)-[5-methyl-2-(5-phenylethynyl-thiophen-2-yl)-imidazo[1,2-a]pyridin-3-yl]-amine], for which the inhibition at 10 µM turned out to be 95%.

For the molecule `CC(C)c1ccn2c(NC(C)(C)CC(C)(C)C)c(-c3ccc(C#Cc4ccccn4)s3)nc2c1` [Example 305, 7-isopropyl-2-(5-(pyridin-2-ylethynyl)thiophen-2-yl)-N-(2,4,4-trimethylpentan-2-yl)imidazo[1,2-a]pyridin-3-amine], the inhibition at 10 µM came to 75%.

Take `Fc1ccc(Nc2c(-c3ccc(C#Cc4ccccn4)cc3)nc3cnccn23)cc1` [Example 242, N-(4-fluorophenyl)-2-(4-(pyridin-2-ylethynyl)phenyl)imidazo[1,2-a]pyrazin-3-amine]: the inhibition at 10 µM was determined as 91%.

With `Cc1ccn2c(NC(C)(C)C)c(-c3ccc(C#Cc4ccccn4)cc3)nc2c1` [Example 278, N-tert-butyl-7-methyl-2-(4-(pyridin-2-ylethynyl)phenyl)imidazo[1,2-a]pyridin-3-amine], the inhibition at 10 µM was 93%.

In the case of `Cc1cccc(C#Cc2cccc(-c3nc4cc(C(C)C)ccn4c3NC(C)(C)C)c2)n1` [Example 309, N-tert-butyl-7-isopropyl-2-(3-((6-methylpyridin-2-yl)ethynyl)phenyl)imidazo[1,2-a]pyridin-3-amine], the inhibition at 10 µM came to 82%.

In the case of `CC(C)c1ccn2c(NC3CCCCC3)c(-c3ccc(C#Cc4ccccn4)o3)nc2c1` [Example 308, N-cyclohexyl-7-isopropyl-2-(5-(pyridin-2-ylethynyl)furan-2-yl)imidazo[1,2-a]pyridin-3-amine], the inhibition at 10 µM stood at 70%.

As to `CC(C)(C)CC(C)(C)Nc1c(-c2ccc(C#Cc3ccccn3)o2)nc2cnccn12` [Example 248, 2-(5-(pyridin-2-ylethynyl)furan-2-yl)-N-(2,4,4-trimethylpentan-2-yl)imidazo[1,2-a]pyrazin-3-amine], the inhibition at 10 µM worked out at 68%.

For the molecule `Cc1cccc(C#Cc2cccc(-c3nc4ccc(Cl)cn4c3NC(C)(C)C)c2)n1` [Example 320, N-tert-butyl-6-chloro-2-(3-((6-methylpyridin-2-yl)ethynyl)phenyl)imidazo[1,2-a]pyridin-3-amine], the inhibition at 10 µM worked out at 77%.

For `CCc1ccn2c(NC3CCCC3)c(-c3ccc(C#Cc4ccccn4)cc3)nc2c1` [Example 301, N-cyclopentyl-7-ethyl-2-(4-(pyridin-2-ylethynyl)phenyl)imidazo[1,2-a]pyridin-3-amine], the inhibition at 10 µM stood at 78%.

On to `C(#Cc1ccc(-c2nc3c(OCc4ccccc4)cccn3c2NCC2CCCCC2)s1)c1ccccc1` [Example 7, [8-benzyloxy-2-(5-phenylethynyl-thiophen-2-yl)-imidazo[1,2-a]pyridin-3-yl]-cyclohexylmethyl-amine], for which the inhibition at 10 µM is 89%.

For the molecule `CC(C)(C)CC(C)(C)Nc1c(-c2ccc(C#Cc3ccccc3)nc2)nc2ncccn12` [Example 256, 2-(6-(phenylethynyl)pyridin-3-yl)-N-(2,4,4-trimethylpentan-2-yl)imidazo[1,2-a]pyrimidin-3-amine], the inhibition at 10 µM is 43%.

The assay is the same for the next values; noted with them: 3[H]-MPEP binding.
One may read the IC50 as the midpoint of a concentration-inhibition curve. Higher therefore signals a need for much substance. Regarding `CCCNc1c(-c2ccc(C#Cc3ccccc3)s2)nc2cnccn12` [Example 69, propyl-[2-(5-phenylethynyl-thiophen-2-yl)-imidazo[1,2-a]pyrazin-3-yl]-amine], the IC50 stood at 2930 nM.

In turn, `Cc1cccc(C#Cc2ccc(-c3nc4cnccn4c3NC(C)(C)C)s2)n1` [Example 158, N-tert-butyl-2-(5-((6-methylpyridin-2-yl)ethynyl)thiophen-2-yl)imidazo[1,2-a]pyrazin-3-amine hydrochloride] registered an IC50 of 33 nM.

The molecule `CNc1cccc(C#Cc2ccc(-c3nc4cnccn4c3NC(C)(C)C)s2)c1` [Example 160, N-tert-butyl-2-(5-((3-(methylamino)phenyl)ethynyl)thiophen-2-yl)imidazo[1,2-a]pyrazin-3-amine hydrochloride] gave an IC50 of 94 nM.

In turn, `CC(=O)c1cccc(C#Cc2ccc(-c3nc4ccccn4c3NC(C)(C)C)s2)c1` [Example 340, 1-{3-[5-(3-tert-butylamino-imidazo[1,2-a]pyridin-2-yl)-thiophen-2-ylethynyl]-phenyl}-ethanone hydrochloride] had an IC50 of 620 nM. This IC50 is about 6.6-fold higher than that of the molecule before.

`Cc1cccc(C#Cc2ccc(-c3nc4cnccn4c3NC(C)(C)C)s2)c1` [Example 139, N-tert-butyl-2-(5-(m-tolylethynyl)thiophen-2-yl)imidazo[1,2-a]pyrazin-3-amine] returned an IC50 of 71 nM. Compared with the last molecule, the IC50 is about 8.7-fold lower.

For `CC(C)(C)CC(C)(C)Nc1c(-c2ccc(C#Cc3ccccc3)s2)nc2ccccn12` [Example 59, [2-(5-phenylethynyl-thiophen-2-yl)-imidazo[1,2-a]pyridin-3-yl]-(1,1,3,3-tetramethyl-butyl)-amine], the IC50 was found to be 2070 nM.

Consider `CC(C)(C)Nc1c(-c2ccc(C#Cc3ncccc3F)s2)nc2cnccn12` [Example 159, N-tert-butyl-2-(5-((3-fluoropyridin-2-yl)ethynyl)thiophen-2-yl)imidazo[1,2-a]pyrazin-3-amine hydrochloride], for which the half-inhibitory concentration (IC50) was found to be 10 nM.

In the case of `CCN(CC)c1c(-c2ccc(C#Cc3ccccc3)s2)nc2cnccn12` [Example 93, N,N-diethyl-2-(5-(phenylethynyl)thiophen-2-yl)imidazo[1,2-a]pyrazin-3-amine], the IC50 turned out to be 250 nM.

In the case of `CC(C)(C)Nc1c(-c2cnc(C#Cc3ccccc3)s2)nc2cnccn12` [Example 146, N-tert-butyl-2-(2-(phenylethynyl)thiazol-5-yl)imidazo[1,2-a]pyrazin-3-amine], the IC50 stood at 35 nM.

As for `COCc1cccc(C#Cc2ccc(-c3nc4ccccn4c3NC(C)(C)C)s2)c1` [Example 346, N-tert-butyl-2-(5-((3-(methoxymethyl)phenyl)ethynyl)thiophen-2-yl)imidazo[1,2-a]pyridin-3-amine], the IC50 was 670 nM.

`CC(C)(C)Nc1c(-c2ccc(C#Cc3cc(C#N)ccc3F)s2)nc2cnccn12` [Example 179, 3-((5-(3-(tert-butylamino)imidazo[1,2-a]pyrazin-2-yl)thiophen-2-yl)ethynyl)-4-fluorobenzonitrile]: the IC50 was determined as 26 nM.

These data come from patent publication US7420056B2, “Substituted bicyclic imidazo-3-ylamine compounds” (Gruenenthal GmbH, priority 2004, dated 2008).
